The subject of one experiment is 22Rv1 cells. Put plainly: Dextran uptake assay. Type of experiment: cell-based. The following applies: 2µM for 30min before assay, TMR-dextran 1 mg/mL 30min.
The subject of another experiment is LNCaP-abl cells. Put plainly: Cell viability after pre-incubation with endocytosis pathway inhibitors. Type of experiment: cell-based. The note with it: EIPA 50µM 30min, then compound 10µM, PrestoBlue after 3 days, n=2.

For the compound `CC(C)(C)C(=O)Nc1ccc2c(c1)C(=O)C(=O)c1ccccc1-2` [SF16170, SF1670], the “macropinocytosis (TMR-dextran uptake)” value in the experiment on 22Rv1 cells is “enhanced macropinocytosis”. For `CNC(=O)c1ccc(N2C(=S)N(c3ccc(C#N)c(C(F)(F)F)c3)C(=O)C2(C)C)cc1F` [enzalutamide, Enzalutamide], the “antiproliferative activity after EIPA pre-incubation” value with LNCaP-abl cells is reported as “did not affect”.

`C#C[C@]1(O)CC[C@H]2[C@@H]3CCC4=CC(=O)CC[C@]4(C)[C@H]3CC[C@@]21C` [ethisterone, Ethisterone]: the “antiproliferative activity after EIPA pre-incubation” value in the experiment with LNCaP-abl cells is recorded as “did not affect”.

These data come from publication PMC10592247 (Molecular cancer therapeutics, 2023).
